# Values quoted from earlier work in patent US20080081070A1, “PHARMACEUTICAL FORMULATION WITH ENHANCED SOLUBILITY FOR THE DELIVERY OF CORTICOSTEROIDS” (priority 2006, published 2008).
# Key:
# [1] = tested on: mild and moderately active Crohn's disease
# [2] = not given; remark: listed apart in the source
# [3] = animal studies
# [4] = oral dosing of radiolabeled drug, humans
compound,measurement,setting,value
"CCC(=O)O[C@]1(C(=O)SCF)[C@H](C)C[C@H]2[C@@H]3C[C@H](F)C4=CC(=O)C=C[C@]4(C)[C@@]3(F)[C@@H](O)C[C@@]21C [Fluticasone propionate, S-fluoromethyl-6-α-9-difluoro-11-β-hydroxy-16-α-methyl-3-oxoandrosta-1,4-diene-17-β-carbothioate, 17-propionate]",total blood clearance,"average, predominantly through the liver","1,093 mL/min"
same,absorption,[4],low
same,extraction from plasma,[4],highly extracted
same,oral bioavailability,[4],negligible
same,excretion of injected radioactivity calculated from whole body data,"[1]; after three weeks oral treatment, before treatment 28 (21%), p less than 0.05",1.4 (0.7%)
same,plasma cortisol values,[1]; three weeks oral treatment,no changes
same,leucocyte scan images,"[1]; three weeks oral treatment, twelve patients",improved (seven patients) or unchanged (five patients)
same,solubility in 95% ethanol,[2]; 95% ethanol,slightly soluble
same,solubility in dimethyl sulfoxide,[2]; dimethyl sulfoxide,freely soluble
same,solubility in dimethyl-formamide,[2]; dimethyl-formamide,freely soluble
same,solubility in methanol,[2]; methanol,slightly soluble
same,solubility in water,[2]; water,0.14 µg/mL
CCC(=O)O[C@]1(C(=O)O)[C@H](C)C[C@H]2[C@@H]3C[C@H](F)C4=CC(=O)C=C[C@]4(C)[C@@]3(F)[C@@H](O)C[C@@]21C [17-β-carboxylic acid],pharmacologic activity,[3],negligible
CCCC1O[C@@H]2C[C@H]3[C@@H]4CCC5=CC(=O)C=C[C@]5(C)[C@H]4[C@@H](O)C[C@]3(C)[C@]2(C(=O)CO)O1 (stereo partly shown) [budesonide],clinical features of hypercortisolism compared with prednisone,Crohn's disease; clinical studies,fewer
same,likelihood of maintaining a normal plasma cortisol level compared with prednisone,Crohn's disease; clinical studies,greater likelihood
same,bone mineral density compared with prednisone,Crohn's disease; two-year study,decreased less
